Assay results taken from patent publication US20150344457A1, “METHODS OF INHIBITING PRMT5” (EPIZYME, INC., priority 2012, published 2015).

Experiments:
Z-138 cells [1] = experiment: Z-138 Methylation Assay (In Cell Western for symmetric di-methyl arginine and DNA content); type: cell-based; conditions: Homo sapiens
Method in brief: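 Symmetric di-methyl arginine signal (800 nm) ratioed to DNA content (700 nm) by In Cell Western after four days of compound treatment of Z-138 suspension cells seeded at 50,000 cells/mL. Percent inhibition set between DMSO and 3 μM reference wells; IC50 curves from triplicates.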

Z-138 cells [2] = experiment: Z-138 Proliferation Assay (Cell Titer Glo, 5 days); type: cell-based; conditions: Homo sapiens
Method in brief: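 Exponentially growing Z-138 cells (10,000 cells/ml) in RPMI 1640 with 10% FBS are exposed to nine-point 3-fold dilutions (final top concentration 20 μM, 0.2% DMSO) for 5 days at 37° C. Viability is measured as ATP by CellTiter-Glo luminescence. The 50% inhibitory concentration comes from a 4-parameter fit.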

[3] = Table A-2, 96 hours, symmetric di-methyl arginine, read-out: ICW EC50
[4] = 120 h, Table A-2, 5 days, top concentration 20 μM

EC50 (Z-138 cells [1]; [3]) [µM]	EC50 (Z-138 cells [1]; Table D-2, read-out: ICW EC50) [µM]	SMILES	EC50 (Z-138 cells [2]; [4]) [µM]	EC50 (Z-138 cells [2]; Table D-2) [µM]
	0.101 to 1	Cn1cnc2ccc(-c3cccc(NCC(O)CN4CCc5ccccc5C4)c3)cc21 (stereo not shown) [Compound D102]		1 to 10
	0.101 to 1	OC(COc1cccc(-c2ccc3ncn(C4CCOCC4)c3c2)c1)CN1CCc2ccccc2C1 (stereo not shown) [Compound D103]		1 to 10
	1 to 10	OC(COc1cccc(-c2ccc3ncn(-c4ccccc4)c3c2)c1)CN1CCc2ccccc2C1 (stereo not shown) [Compound D104]		> 20
	1 to 10	OC(COc1cccc(-c2ccc3ncn(Cc4ccccc4)c3c2)c1)CN1CCc2ccccc2C1 (stereo not shown) [Compound D105]		10 to 40
	1 to 10	Cn1ncc2ccc(-c3cccc(OCC(O)CN4CCc5ccccc5C4)c3)cc21 (stereo not shown) [Compound D106]		> 20
	1 to 10	OC(COc1cccc(-c2ccc3[nH]ncc3c2)c1)CN1CCc2ccccc2C1 (stereo not shown) [Compound D107]		> 20
	1 to 10	Cn1ncc2cc(-c3cccc(OCC(O)CN4CCc5ccccc5C4)c3)ccc21 (stereo not shown) [Compound D108]		10 to 40
	0.101 to 1	O=c1[nH]c2ccc(-c3cccc(OCC(O)CN4CCc5ccccc5C4)c3)cc2[nH]1 (stereo not shown) [Compound D109]		10 to 40
	0.101 to 1	Cc1ccncc1-c1cccc(OCC(O)CN2CCc3ccccc3C2)c1 (stereo not shown) [Compound D113]		10 to 40
	1 to 10	CN(CC(O)CN1CCc2ccccc2C1)c1cccc(CNC2CCOCC2)c1 (stereo not shown) [Compound D116]		> 20
	1 to 10	Cn1cnc2ccc(-c3cccc(NCC(O)CN4CCc5ccccc5C4)n3)cc21 (stereo not shown) [Compound D117]		> 20
	0.101 to 1	Cn1cnc2ccc(-c3ccnc(NCC(O)CN4CCc5ccccc5C4)c3)cc21 (stereo not shown) [Compound D118]		1 to 10
	0.101 to 1	Cn1cnc2ccc(-c3ccnc(NCC(O)CN4CCc5ccccc5C4)n3)cc21 (stereo not shown) [Compound D119]		1 to 10
	0.101 to 1	Cn1cnc2ccc(-c3cncc(NCC(O)CN4CCc5ccccc5C4)n3)cc21 (stereo not shown) [Compound D121]		> 20
	10 to 40	OC(COc1cccc(-c2ccc(C(F)(F)F)cc2C(F)(F)F)c1)CN1CCc2ccccc2C1 (stereo not shown) [Compound D124]		> 20
	1 to 10	CN(C)c1ncc(-c2cccc(OCC(O)CN3CCc4ccccc4C3)c2)cn1 (stereo not shown) [Compound D125]		10 to 40
	1 to 10	O=C(c1cccc(-c2cccc(OCC(O)CN3CCc4ccccc4C3)c2)c1)N1CCOCC1 (stereo not shown) [Compound D126]		> 20

EC50 (Z-138 cells [1]; [3]) [µM]	EC50 (Z-138 cells [1]; Table D-2, read-out: ICW EC50) [µM]	SMILES	EC50 (Z-138 cells [2]; [4]) [µM]	EC50 (Z-138 cells [2]; Table D-2) [µM]
	10 to 40	OC(COc1cccc(-c2ccc(C(F)(F)F)cc2Cl)c1)CN1CCc2ccccc2C1 (stereo not shown) [Compound D127]		> 20
	1 to 10	CS(=O)(=O)Nc1ccc(-c2cccc(OCC(O)CN3CCc4ccccc4C3)c2)cc1 (stereo not shown) [Compound D129]		10 to 40
	1 to 10	CS(=O)(=O)c1cccc(-c2cccc(OCC(O)CN3CCc4ccccc4C3)c2)c1 (stereo not shown) [Compound D130]		> 20
	1 to 10	CS(=O)(=O)c1ccccc1-c1cccc(OCC(O)CN2CCc3ccccc3C2)c1 (stereo not shown) [Compound D131]		> 20
	1 to 10	OC(COc1cccc(-c2ccccc2C(F)(F)F)c1)CN1CCc2ccccc2C1 (stereo not shown) [Compound D132]		> 20
	1 to 10	COc1ccc(Cl)cc1-c1cccc(OCC(O)CN2CCc3ccccc3C2)c1 (stereo not shown) [Compound D134]		> 20
	> 20	COC(=O)c1cccc(-c2cccc(OCC(O)CN3CCc4ccccc4C3)c2)c1 (stereo not shown) [Compound D135]		> 20
	1 to 10	Cn1ncc2ccc(-c3cc(COCC(O)CN4CCc5ccccc5C4)on3)cc21 (stereo not shown) [Compound D136]		> 20
	1 to 10	CC(=O)c1ccc(-c2cccc(OCC(O)CN3CCc4ccccc4C3)c2)cc1 (stereo not shown) [Compound D137]		> 20
	1 to 10	Cc1ccc(F)c(-c2cccc(OCC(O)CN3CCc4ccccc4C3)c2)c1 (stereo not shown) [Compound D138]		> 20
	1 to 10	OC(COc1cccc(-c2cccnc2F)c1)CN1CCc2ccccc2C1 (stereo not shown) [Compound D139]		> 20
	0.101 to 1	Cn1ccc2cnc(-c3cccc(OCC(O)CN4CCc5ccccc5C4)c3)nc21 (stereo not shown) [Compound D141]		> 20
	1 to 10	O=C(Nc1cccc(OCC(O)CN2CCc3ccccc3C2)c1)c1cnccn1 (stereo not shown) [Compound D145]		> 20
	1 to 10	Cn1ccc2ccc(-c3cccc(OCC(O)CN4CCc5ccccc5C4)c3)cc21 (stereo not shown) [Compound D147]		10 to 40
	1 to 10	O=C1NCc2ccc(-c3cccc(OCC(O)CN4CCc5ccccc5C4)c3)cc21 (stereo not shown) [Compound D148]		10 to 40
	1 to 10	CN1CCN(c2ccc(-c3cccc(OCC(O)CN4CCc5ccccc5C4)c3)cn2)CC1 (stereo not shown) [Compound D149]		1 to 10

Second part, the compound before the results:

SMILES	EC50 (Z-138 cells [1]; [3]) [µM]	EC50 (Z-138 cells [1]; Table D-2, read-out: ICW EC50) [µM]	EC50 (Z-138 cells [2]; [4]) [µM]	EC50 (Z-138 cells [2]; Table D-2) [µM]
O=C(COc1cccc(CN2CCOCC2)c1)NCC(O)CN1CCc2ccccc2C1 (stereo not shown) [Compound A75]	< 0.1		1 to 10	
C[C@H](Oc1cccc2cccnc12)C(=O)NC[C@H](O)CN1CCc2ccccc2C1 [Compound A76]	0.101 to 1		1 to 10	
O=C(COc1ccccc1N1CCOCC1)NC[C@H](O)CN1CCc2ccccc2C1 [Compound A77]	< 0.1		1 to 10	
O=C(COc1ccccc1N1CCNCC1)NCC(O)CN1CCc2ccccc2C1 (stereo not shown) [Compound A79]	0.101 to 1		1 to 10	
CN1C(=O)COc2cccc(OCC(=O)NCC(O)CN3CCc4ccccc4C3)c21 (stereo not shown) [Compound A80]	0.101 to 1		10 to 50	
CN1CCOc2cccc(OCC(=O)NCC(O)CN3CCc4ccccc4C3)c21 (stereo not shown) [Compound A81]	< 0.1		0.101 to 1	
Cn1ncc2c(OCC(=O)NCC(O)CN3CCc4ccccc4C3)cccc21 (stereo not shown) [Compound A82]	< 0.1		1 to 10	
O=C(COc1cccc(C(=O)N2CCOCC2)c1)NCC(O)CN1CCc2ccccc2C1 (stereo not shown) [Compound A83]	0.101 to 1		10 to 50	
CN1CCN(c2ccccc2OCC(=O)NC[C@H](O)CN2CCc3ccccc3C2)CC1 [Compound A84]	0.101 to 1		1 to 10	
O=C(COc1ccccc1OCCN1CCOCC1)NC[C@H](O)CN1CCc2ccccc2C1 [Compound A86]	0.101 to 1		10 to 50	
CN(C)CCOc1ccccc1OCC(=O)NC[C@H](O)CN1CCc2ccccc2C1 [Compound A88]	0.101 to 1		10 to 50	
CC(=O)N1CCN(c2ccccc2OCC(=O)NCC(O)CN2CCc3ccccc3C2)CC1 (stereo not shown) [Compound A90]	0.101 to 1		10 to 50	
O=C(COc1cccc2c1CCNC2)NCC(O)CN1CCc2ccccc2C1 (stereo not shown) [Compound A91]	0.101 to 1		1 to 10	
O=C(COc1cccc2nccnc12)NCC(O)CN1CCc2ccccc2C1 (stereo not shown) [Compound A92]	< 0.1		1 to 10	
O=C(COc1cccc(NC2CCOCC2)c1)NCC(O)CN1CCc2ccccc2C1 (stereo not shown) [Compound A93]	< 0.1		1 to 10	
O=C(COc1c(CN2CCOCC2)ccc2cccnc12)NC[C@H](O)CN1CCc2ccccc2C1 [Compound A94]	0.101 to 1		10 to 50	
O=C(COc1ccc2c(cnn2C2CCNC2)c1)NCC(O)CN1CCc2ccccc2C1 (stereo not shown) [Compound A95]	0.101 to 1		10 to 50	
